# Test results from article PMC3724850, “A Scallop Nitric Oxide Synthase (NOS) with Structure Similar to Neuronal NOS and Its Involvement in the Immune Defense” (PLoS ONE, 2013).
# Target: T1, CfNOS (native) (Azumapecten farreri, UniProt S4UD24)
# T1 construct: gene NOS; immunoprecipitated from scallop haemocyte lysate with rat polyclonal antibody to rCfNOS, Protein G column
# T1 sequence (S4UD24 1-1486): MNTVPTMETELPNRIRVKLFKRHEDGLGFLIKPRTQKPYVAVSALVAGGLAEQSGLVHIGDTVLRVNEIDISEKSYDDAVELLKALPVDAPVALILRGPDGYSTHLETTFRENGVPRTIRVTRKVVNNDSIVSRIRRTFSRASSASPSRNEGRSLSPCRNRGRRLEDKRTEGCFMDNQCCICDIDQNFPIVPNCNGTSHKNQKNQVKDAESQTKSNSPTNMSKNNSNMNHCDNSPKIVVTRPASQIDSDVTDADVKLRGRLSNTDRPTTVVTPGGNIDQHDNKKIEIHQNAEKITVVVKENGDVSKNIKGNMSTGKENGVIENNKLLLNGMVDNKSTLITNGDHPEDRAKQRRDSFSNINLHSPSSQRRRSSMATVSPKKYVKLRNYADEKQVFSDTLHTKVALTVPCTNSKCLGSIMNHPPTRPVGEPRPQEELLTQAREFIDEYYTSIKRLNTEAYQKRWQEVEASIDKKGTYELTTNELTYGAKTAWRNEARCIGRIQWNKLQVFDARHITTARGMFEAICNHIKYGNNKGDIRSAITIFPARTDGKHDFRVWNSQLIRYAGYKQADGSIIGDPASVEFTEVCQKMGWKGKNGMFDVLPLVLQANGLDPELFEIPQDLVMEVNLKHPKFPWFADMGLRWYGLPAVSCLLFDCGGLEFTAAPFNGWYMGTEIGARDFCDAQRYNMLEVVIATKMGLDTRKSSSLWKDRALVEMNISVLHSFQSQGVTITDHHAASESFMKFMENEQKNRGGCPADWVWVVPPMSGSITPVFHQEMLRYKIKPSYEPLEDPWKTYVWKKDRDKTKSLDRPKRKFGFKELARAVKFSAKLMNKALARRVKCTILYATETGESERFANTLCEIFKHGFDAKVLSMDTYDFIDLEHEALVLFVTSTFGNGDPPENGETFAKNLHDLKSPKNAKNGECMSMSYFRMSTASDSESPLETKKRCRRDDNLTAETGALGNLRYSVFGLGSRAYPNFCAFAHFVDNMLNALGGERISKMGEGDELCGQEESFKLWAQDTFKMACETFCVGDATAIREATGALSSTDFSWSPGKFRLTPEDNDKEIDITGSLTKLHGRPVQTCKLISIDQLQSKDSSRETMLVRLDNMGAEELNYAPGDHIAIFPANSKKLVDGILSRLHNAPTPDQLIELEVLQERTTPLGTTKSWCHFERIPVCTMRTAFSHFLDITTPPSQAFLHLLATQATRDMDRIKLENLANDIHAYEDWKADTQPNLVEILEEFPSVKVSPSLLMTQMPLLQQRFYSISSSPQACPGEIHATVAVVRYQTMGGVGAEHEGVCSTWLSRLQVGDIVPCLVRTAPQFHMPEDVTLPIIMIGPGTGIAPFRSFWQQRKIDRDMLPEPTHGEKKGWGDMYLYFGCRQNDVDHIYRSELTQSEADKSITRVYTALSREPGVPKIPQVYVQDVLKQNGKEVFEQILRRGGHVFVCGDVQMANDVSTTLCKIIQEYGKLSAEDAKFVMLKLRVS
# Test: NOS activity by total NOS detection kit (absorbance […] nm)
# Assay type: biochemical
# Conditions: no inhibitor; immunoprecipitated native enzyme
compound,measurement,value
N=C(N)NCCC[C@H](N)C(=O)O [L-Arginine],NOS activity by total NOS detection kit (absorbance 530 nm),measuring the NO production using L-Arginine as the substrate
